# Reference: patent EP1200395B1, “UREA DERIVATIVES AS INHIBITORS OF CCR-3 RECEPTOR” (KIRIN BEER KABUSHIKI KAISHA, priority 1999, dated 2001)
# Columns and labels:
# CCR-3 [1] = molecular target: T1, CCR-3 (Homo sapiens, UniProt P51677); assay: Calcium mobilization assay (inhibition of eotaxin-induced intracellular calcium mobilization in CCR3/HEK293 cells); assay type: cell-based; parameters: expressed in transfected cells; conditions: eotaxin 10 nM; for Ca^2+ mobilization 1.25 µg/ml (inhibition %): 1.25 µg/ml test compound, CCR3/HEK293 cells (Table 2b); for Ca^2+ mobilization 6.25 µg/ml (inhibition %): 6.25 µg/ml test compound, CCR3/HEK293 cells (Table 2a)
# T1 sequence (P51677 1-355): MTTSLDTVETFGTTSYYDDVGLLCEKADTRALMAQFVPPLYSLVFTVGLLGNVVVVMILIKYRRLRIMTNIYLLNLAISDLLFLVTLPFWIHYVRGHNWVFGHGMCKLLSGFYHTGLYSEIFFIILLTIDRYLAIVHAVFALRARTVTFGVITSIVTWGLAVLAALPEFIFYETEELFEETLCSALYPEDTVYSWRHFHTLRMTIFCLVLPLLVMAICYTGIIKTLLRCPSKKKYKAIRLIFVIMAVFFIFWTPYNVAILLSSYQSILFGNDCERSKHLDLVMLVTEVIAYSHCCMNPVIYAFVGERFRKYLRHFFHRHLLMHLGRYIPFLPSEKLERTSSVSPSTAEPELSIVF
# Protocol: Compounds 93-162 used in this assay were synthesized by using the method described in Example 6.
# CCR-3 transfectant cells (CCR3/HEK293) were isolated and resuspended with assay buffer (20 mM HEPES, 125 mM NaCl, 5 mM KCl; 0.5 mM glucose, 1 mM CaCl2, 1 mM MgCl2, 0.1 % BSA). After washing CCR3/HEK293 cells with assay buffer, cells were loaded with Fura-2/AM in assay buffer for 1 hour at room temperature. Cells were washed and resuspended with assay buffer at 5 x 10^6 cells/ml in assay buffer, and placed in a tissue culture plate (Falcon, no. 3296). Test compounds dissolved in DMSO were added to the wells, followed by eotaxin (10 nM at final concentration). Cells were excited at 340 nm and 380 nm in a fluorimeter (ARGUS50, FDSS2000, Hamamatsu Photonics) and the relative ratio of the fluorescence emitted at 510 nm was recorded. For a control, DMSO without a test compound was added. Intracellular calcium mobilization was calculated as described in Krogel C. et al. , FEBS Let. (1989) 243 , 41-46.
# CCR-3 [2] = molecular target: T1, CCR-3; assay: Eotaxin-induced chemotaxis of CCR-3 transfectant cells (CCR3/U937); assay type: cell-based; parameters: expressed in transfected cells; host or cells: U937; conditions: eotaxin 1 x 10^-9 M; for Chemotaxis Assay 10 µM (inhibition %) / inhibition at 10 µM: 10 µM test compound; for inhibition at 10 µM: U-937; for Chemotaxis Assay 0.1 µg/ml (inhibition %): test compound 0.1 µg/ml, CCR3/U937 transfectants, 37 °C, 1 hour
SMILES,Ca^2+ mobilization 1.25 µg/ml (inhibition %) (CCR-3 [1]) [%],Ca^2+ mobilization 6.25 µg/ml (inhibition %) (CCR-3 [1]) [%],other results
CC[N+](CCCNC(=O)Nc1ccc(C#N)cc1)(CCc1cccc(Cl)c1)CC1CCC1.[I-] (stereo not shown) [compound 397],69,–,–
CSCCCN(CCCNC(=O)Nc1ccccc1-c1ccccc1)CCc1ccccc1 [Compound 105],–,53,–
C=C(C)C[N+](CC)(CCCNC(=O)Nc1ccc(C#N)cc1)CCc1ccc(Cl)c(Cl)c1.[I-] (stereo not shown) [compound 401],57,–,–
O=C(O)CCCN(CCCNC(=O)Nc1ccccc1-c1ccccc1)Cc1ccc2c(c1)OCO2 [Compound 101],–,63,–
CC[N+](CCCNC(=O)Nc1ccc(OC)cc1)(CCc1ccc(Cl)c(Cl)c1)CC(N)=O.[I-] (stereo not shown) [compound 437],64,–,–
CCOC(=O)C1CC1CN(CCCNC(=O)Nc1cccc(Cl)c1)CCc1ccc(C)cc1 (stereo not shown) [Compound 153],–,59,–
CSCCCN(CCCNC(=O)Nc1cccc(C)c1)CCc1ccc(C)cc1 [Compound 141],–,53,–
COC(=O)CCCN(CCCNC(=O)Nc1cccc(Cl)c1)CCc1ccc(Cl)c(Cl)c1 [Compound 156],–,63,–
C=C(C)C[N+](CC)(CCCNC(=O)Nc1ccc(Cl)c(Cl)c1)CCc1ccc(Cl)cc1Cl.[I-] (stereo not shown) [compound 366],46,–,–
COc1ccc(CCN(CCCNC(=O)Nc2cccc(C)c2)CCCSC)cc1OC [Compound 139],–,65,–
C=C(C)C[N+](CC)(CCCNC(=O)Nc1ccc(OC)cc1)CCc1ccc(Cl)c(Cl)c1.[I-] (stereo not shown) [compound 447],65,–,–
CSCCCN(CCCNC(=O)Nc1ccc(Cl)c(C(F)(F)F)c1)Cc1ccc2c(c1)OCO2 [Compound 94],–,50,–
CC(C)CN(CCCNC(=O)Nc1ccccc1-c1ccccc1)CCC(c1ccccc1)c1ccccc1 [Compound 117],–,55,–
C=C(C)C[N+](CC)(CCCNC(=O)Nc1ccc(OC)cc1)CCc1ccc(Cl)cc1Cl.[I-] (stereo not shown) [compound 446],76,–,–
"CC[N+](CCCNC(=O)Nc1ccc(OC)cc1)(CCOCCOC)CCc1cccc(Cl)c1.[I-] (stereo not shown) [Compound 438, [3-(4-Methoxyphenylureido)propyl][2-(3-chlorophenyl)ethyl][2-(2-methoxyehtoxy)ethyl] ethylammonium iodide]",70,–,–
CSCCCN(CCCNC(=O)Nc1ccc(Br)cc1)Cc1ccc(C(F)(F)F)cc1 [Compound 130],–,51,–
CC[N+](CCCNC(=O)Nc1ccc(Cl)c(Cl)c1)(CCc1cccc(Cl)c1)CC1CCC1.[I-] (stereo not shown) [compound 361],70,–,–
CC[N+](CCCNC(=O)Nc1ccc(Cl)c(Cl)c1)(CCOCCOC)CCc1ccc(Cl)cc1Cl.[I-] (stereo not shown) [compound 357],57,–,–
O=C(NCCCN(CCc1ccccc1)Cc1ccco1)Nc1cccc(Cl)c1 [Compound 144],–,51,–
C=C(C)C[N+](CC)(CCCNC(=O)Nc1ccc(OC)cc1)CCc1ccc(Cl)cc1.[I-] (stereo not shown) [compound 444],72,–,–
CC(C)CCN(CCCNC(=O)Nc1cccc(Cl)c1)Cc1cccs1 [Compound 145],–,53,–
O=C(NCCCN(CCc1c[nH]cn1)CC1CCCCC1)Nc1cccc(Cl)c1 [Compound 147],–,51,–
"CC[N+](CCCNC(=O)Nc1ccc(C#N)cc1)(CCOCCOC)CCc1cccc(Cl)c1.[I-] (stereo not shown) [Compound 394, [3-(4-Cyanophenylureido)propyl][2-(3-chlorophenyl)ethyl][2-(2-methoxyehtoxy)ethyl] ethylammonium iodide]",76,–,–
CC[N+](CCCNC(=O)Nc1ccc(Cl)c(Cl)c1)(CCc1ccc(Cl)cc1Cl)CC1CCC1.[I-] (stereo not shown) [compound 362],49,–,–
O=C(NCCCN(CCc1ccc(Cl)c(Cl)c1)CC1CCCCC1)Nc1cccc(Cl)c1 [Compound 154],–,55,–

SMILES,Ca^2+ mobilization 1.25 µg/ml (inhibition %) (CCR-3 [1]) [%],Ca^2+ mobilization 6.25 µg/ml (inhibition %) (CCR-3 [1]) [%],other results
COC(=O)CCCN(CCCNC(=O)Nc1ccc(Cl)c(Cl)c1)Cc1ccc2c(c1)OCO2 [Compound 160],–,58,–
COc1ccc(NC(=O)NCCCN(CCOCc2ccccc2)CCc2ccc(OC)c(OC)c2)cc1 [Compound 159],–,51,–
CC(C)CN(CCCNC(=O)Nc1ccc(Cl)c(C(F)(F)F)c1)CCc1ccccc1 [Compound 95],–,55,–
CC[N+](CCCNC(=O)Nc1ccc(OC)cc1)(CCc1ccc(Cl)cc1Cl)CC1CCC1.[I-] (stereo not shown) [compound 442],63,–,–
CCN(CCCNC(=O)Nc1ccc(Cl)c(C(F)(F)F)c1)C1CCCc2ccccc21 (stereo not shown) [Compound 93],–,50,–
CC[N+](CCCNC(=O)Nc1ccc(Cl)c(Cl)c1)(CCc1ccc(Cl)c(Cl)c1)CC1CCC1.[I-] (stereo not shown) [compound 363],56,–,–
C=C(C)C[N+](CC)(CCCNC(=O)Nc1ccc(C#N)cc1)CCc1cccc(Cl)c1.[I-] (stereo not shown) [compound 399],58,–,–
C=C(C)C[N+](CC)(CCCNC(=O)Nc1ccc(Cl)c(Cl)c1)CCc1cccc(Cl)c1.[I-] (stereo not shown) [compound 365],65,–,–
CCOC(=O)C1CC1CN(CCCNC(=O)Nc1cccc2ccccc12)CCc1ccccc1 (stereo not shown) [Compound 162],–,50,–
COC(=O)CCCN(CCCNC(=O)Nc1cccc2ccccc12)C1CCCc2ccccc21 (stereo not shown) [Compound 59],–,–,Chemotaxis Assay 10 µM (inhibition %) (CCR-3 [2]; CCR3/U937 cells (Table 3a)): 87%
O=C(NCCCN(CCc1ccc(Cl)cc1)Cc1cnc2ccccc2c1)Nc1ccccc1 [Compound 20],–,–,inhibition at 10 µM (CCR-3 [2]; CCR3/U937 cells (Table 3a)): 26%
CCC(CC)C[N+](CC)(CCCNC(=O)Nc1ccccc1)CCc1ccc(Cl)c(Cl)c1.[I-] (stereo not shown) [compound 430],–,–,Chemotaxis Assay 0.1 µg/ml (inhibition %) (CCR-3 [2]): 76%
"CCOC(=O)c1ccc(NC(=O)NCCCN(CCCC(=O)O)C2CCCc3ccccc32)cc1 (stereo not shown) [Compound 228, 4-[[3-[4-(Ethoxycarbonyl)phenylureido]propyl](1,2,3,4-tetrahydro-1-naphthyl)amino]butanoic acid]",–,–,inhibition at 10 µM (CCR-3 [2]; CCR3/U937 cells (Table 3a)): 100%
CC[N+](CC#N)(CCCNC(=O)Nc1ccc(Br)cc1)CCc1cccc(Cl)c1.[I-] (stereo not shown) [compound 372],–,–,Chemotaxis Assay 0.1 µg/ml (inhibition %) (CCR-3 [2]): 76%
O=C(O)CCCN(CCCNC(=O)Nc1ccc(Br)cc1)CCc1c[nH]c2ccccc12 [Compound 74],–,–,Chemotaxis Assay 10 µM (inhibition %) (CCR-3 [2]; CCR3/U937 cells (Table 3a)): 50%
COC(=O)CCCN(CCCNC(=O)Nc1ccc(Br)cc1)Cc1ccc2c(c1)OCO2 [Compound 40],–,–,Chemotaxis Assay 10 µM (inhibition %) (CCR-3 [2]; CCR3/U937 cells (Table 3a)): 88%
COC(=O)CCCN(CCCNC(=O)Nc1ccc(Br)cc1)CCc1ccc(OC)c(OC)c1 [Compound 43],–,–,inhibition at 10 µM (CCR-3 [2]; CCR3/U937 cells (Table 3a)): 50%
COC(=O)CCCN(CCCNC(=O)Nc1ccc(Br)cc1)Cc1cccs1 [Compound 39],–,–,inhibition at 10 µM (CCR-3 [2]; CCR3/U937 cells (Table 3a)): 78%
CC[N+](CCCNC(=O)Nc1ccccc1)(CCOCCOC)CCc1cccc(F)c1.[I-] (stereo not shown) [compound 416],–,–,Chemotaxis Assay 0.1 µg/ml (inhibition %) (CCR-3 [2]): 69%
"O=C(NCCCN(CCCCO)C1CCCc2ccccc21)Nc1ccc(Br)cc1 (stereo not shown) [Compound 203, 4-[[3-(4-Bromophenylureido)propyl](1,2,3,4-tetrahydro-1-naphthyl)amino]-1-butanol]",–,–,inhibition at 10 µM (CCR-3 [2]; CCR3/U937 cells (Table 3a)): 100%
CC[N+](CCCNC(=O)Nc1ccccc1)(CCc1cccc(Cl)c1)Cc1ccccc1.[I-] (stereo not shown) [compound 328],–,–,Chemotaxis Assay 10 µM (inhibition %) (CCR-3 [2]; CCR3/U937 cells (Table 3c)): 100%
CC[N+](CCF)(CCCNC(=O)Nc1ccc(Cl)c(Cl)c1)CCc1ccccc1.[I-] (stereo not shown) [compound 370],–,–,Chemotaxis Assay 0.1 µg/ml (inhibition %) (CCR-3 [2]): 64%
COC(=O)CCCN(CCCNC(=O)Nc1ccccc1Br)C(C)(C)c1ccccc1 [Compound 194],–,–,Chemotaxis Assay 10 µM (inhibition %) (CCR-3 [2]; CCR3/U937 cells (Table 3a)): 100%
CC[N+](CCF)(CCCNC(=O)Nc1ccc(Br)cc1)CCc1cccc(Cl)c1.[I-] (stereo not shown) [compound 382],–,–,Chemotaxis Assay 0.1 µg/ml (inhibition %) (CCR-3 [2]): 98%
